# In patent US7407936B2, “Use of copolymer 1 and related peptides and polypeptides and T cells treated herewith for neuroprotective glaucoma therapy” (Yeda Research and Development Co. Ltd., priority 2000, dated 2008):
# Experiments:
# [1] = test system: retinal ganglion cells (RGCs); assay: Glutamate toxicity in mice (intravitreal glutamate), RGC survival; type: in vivo, C57BL/6J mice
# [2] = test system: retinal ganglion cells (RGCs); assay: Severe optic nerve crush injury in mice, RGC survival; type: in vivo, Balb/c mice; settings: 50 μg Cop-1 in CFA before severe crush; two weeks after injury; p<0.001
# retinal ganglion cells = assay: Ocular hypertension (laser-induced increased IOP) in rats, RGC survival; type: in vivo, Lewis rats; settings: immunized in CFA on the day of the first laser treatment; after 3 weeks; p<0.0001
# [3] = test system: retinal ganglion cells (RGCs); assay: Optic nerve crush injury in rats: secondary degeneration by retrograde labeling of RGCs; type: in vivo, Lewis rats; settings: mild crush; vaccinated with Cop 1 in IFA immediately, booster two days later; P<0.05
# Method: Crush Injury of Optic Nerve. The optic nerve was subjected to crush injury as previously described (Duvdevani et al, 1990). Briefly, rats were deeply anesthetized by intraperitoneal (i.p.) injection of Rompun (xylazine, 10 mg/kg; Vitamed, Israel) and Vetalar (ketamine, 50 mg/kg; Fort Dodge Laboratories, Fort Dodge, Iowa). Using a binocular operating microscope, lateral canthotomy was performed in the right eye, and the conjunctiva was incised lateral to the cornea. After separation of the retractor bulbi muscles, the optic nerve was exposed intraorbitally by blunt dissection. Using calibrated cross-action forceps, the optic nerve was subjected to a crush injury 1-2 mm from the eye. […]
# Measurement of Secondary Degeneration by Retrograde Labeling of Retinal Ganglion Cells. Secondary degeneration of the optic nerve axons and their attached retinal ganglion cells (RGCs) was measured after post-injury application of the fluorescent lipophilic dye, 4-(4-(didecylamino)styryl)-N-methylpyridinium iodide (4-Di-10-Asp) (Molecular Probes Europe BV, Netherlands), distally to the lesion site, two weeks after crush injury. Because only axons that are intact can transport the dye back to their cell bodies, application of the dye distally to the lesion site after two weeks ensures that only axons that survived both the primary damage and the secondary degeneration will be counted. […]
# [4] = test system: retinal ganglion cells (RGCs); assay: NMDA toxicity in mice (intravitreal NMDA), RGC survival; type: in vivo; settings: immunized ten days before NMDA (75 nmole); p=0.55 vs PBS
# [5] = patients, cited from earlier work
# [6] = batches of average molecular weight 23,000; Teitelbaum et al; cited from earlier work
Substance,"RGC survival after glutamate injection, effect of immunization ([1]; pMOG in CFA prior to glutamate (200 nmole), assessed 1 week later)",RGC survival rates relative to non-immunized controls [2],numbers of surviving retinal ganglion cells versus PBS/CFA controls (retinal ganglion cells),neuroprotection (surviving RGCs) compared with PBS in IFA [3],protection from toxicity caused by NMDA (RGC survival) [4],"number of relapses in exacerbating-remitting MS ([5]; Bornstein 1990, Sela 1990, Johnson 1994)","tolerability in clinical trials ([5]; Johnson et al, 1995)","glutamate toxicity in controls relative to immunized mice ([1]; 75 μg Cop 1 in CFA ten days before 200 nmoles glutamate, RGCs counted seven days later)",mean percentage survival rate of RGCs versus PBS-injected ([1]; immunization 24 h after glutamate injection),mean percentage survival rate of RGCs versus PBS-injected ([1]; immunization 48 h after glutamate injection),"rates of RGC survival versus PBS in adjuvant ([1]; immunized on the day of glutamate injection, adjuvant 0.5 or 5 mg/ml bacteria)","glutamate toxicity (RGC survival) after immunization ([1]; immunized ten days before glutamate, adjuvant 5 mg/ml bacteria)",protecting and suppressing EAE [6]
"GQFRVIGPGHPIRALVGDEAEL (listed as Homo sapiens) [pMOG, Myelin oligodendrocyte glycoprotein (MOG) peptide 1-22]",no evidence of a beneficial effect,–,–,–,–,–,–,–,–,–,–,–,–
Glatiramer acetate [Cop 1],–,significantly higher,significantly higher,significant neuroprotection,failed to protect,significantly reduce,well tolerated with only minor side reactions,about four,significantly higher,not significant,significantly higher,significant reduction,highly effective
